The values below are quoted from earlier work in article PMC9289467, “A Novel Multifunctional 5,6-Dimethoxy-Indanone-Chalcone-Carbamate Hybrids Alleviates Cognitive Decline in Alzheimer’s Disease by Dual Inhibition of Acetylcholinesterase and Inflammation” (Frontiers in Aging Neuroscience, 2022).

Data set [1] deals with cerebrospinal fluid (CSF) Aβ. The note with it: chronic treatment, patients with AD; ref Nitsch et al., 2000; cited from earlier work.
The subject of data set [2] is AChE-induced Aβ fibrillization. The settings on record: PAS inhibitors; ref Inestrosa et al., 1996; cited from earlier work.
Data set [3] deals with APP processing. The settings on record: rat brains; ref Farber et al., 1995; cited from earlier work.

Turning to `CC1OC2(CS1)CN1CCC2CC1` (centres unmarked) [AF102B], the “cerebrospinal fluid (CSF) Aβ levels” value in data set [1] is “markedly lowered”.
For `CC[N+](C)(CC)CCC[n+]1c(-c2ccccc2)c2cc(N)ccc2c2ccc(N)cc21` [Propidium], the “effect of AChE on Aβ fibril aggregation process” value in data set [2] is on record as “capable of preventing”.
Take `CNC(=O)Oc1ccc2c(c1)[C@]1(C)CCN(C)[C@@H]1N2C` [physostigmine]: the “cerebrospinal fluid (CSF) Aβ levels” value in data set [1] is listed as “did not show a significant effect”. Further, in data set [3], the APP processing entry is given as “did not change APP processing”.
On to fasciculin, for which the “effect of AChE on Aβ fibril aggregation process” value in data set [2] is “capable of preventing”.
